Measured values taken from PMC5571211 (Scientific Reports, 2017).

Tests used:
[1] = molecular target: T1, co-localization of 5-LOX with FLAP (Homo sapiens, UniProt P20292); assay: Immunofluorescence microscopy of 5-LOX subcellular redistribution / co-localization with FLAP; assay type: cell-based; settings: human neutrophils or monocytes; diflapolin 1 µM, MK886 0.3 µM, zileuton 3 µM
T1 construct: endogenous in cells; host or cells: freshly isolated human monocytes (immunofluorescence also in neutrophils)
T1 sequence (P20292 1-161): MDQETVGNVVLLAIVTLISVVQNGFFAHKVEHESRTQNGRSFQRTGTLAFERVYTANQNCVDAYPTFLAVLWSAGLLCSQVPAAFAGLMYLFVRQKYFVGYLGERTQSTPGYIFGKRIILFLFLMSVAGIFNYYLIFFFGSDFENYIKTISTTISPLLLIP
Protocol: The incubations were stopped by paraformaldehyde fixation (4%, 20 min, RT) and cells were permeabilized using 100% ice-cold acetone (5 min, 4 °C). Blocking with non-immune goat serum (30 min, RT) was performed prior to overnight incubation (4 °C) with primary monoclonal-mouse-anti-5-LOX antibody (1:100 dilution, a generous gift from Dr. D. Steinhilber, Goethe University Frankfurt, Germany) and polyclonal-rabbit-anti-FLAP antibody (5 µg/mL, Abcam, Cambridge, UK). […] Cells were visualized by a Zeiss Axiovert 200 M microscope, and a Plan Neofluar × 100/1.30 Oil (DIC III) objective (Carl Zeiss, Jena, Germany) and image acquisition was performed using an AxioCam MR camera (Carl Zeiss).

[2] = molecular target: T2, mPGES-1 (Homo sapiens, UniProt O14684); settings: cited from earlier work
T2 construct: A549 cells were cultivated in DMEM medium containing FCS (2%) and IL-1β (2 ng/mL) for 72 h; endogenous in cells; host or cells: A549 cells, IL-1β-induced, microsomal fraction
T2 sequence (O14684 1-152): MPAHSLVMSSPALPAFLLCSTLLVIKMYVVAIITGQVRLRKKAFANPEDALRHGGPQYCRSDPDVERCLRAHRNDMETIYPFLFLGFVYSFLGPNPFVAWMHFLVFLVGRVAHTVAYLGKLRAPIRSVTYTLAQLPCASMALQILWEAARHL

[3] = tested on: HEK293 cells expressing 5-LOX (deficient in FLAP); assay: 5-LOX product formation in HEK293 cells expressing 5-LOX alone; assay type: cell-based; settings: HEK293 expressing 5-LOX, A23187 plus 3 µM AA
Protocol: HEK293 cells were cultured in monolayers (37 °C, 5% CO2) in DMEM containing FCS (10%), penicillin (100 U/mL) and streptomycin (100 µg/mL). HEK293 cell lines stably expressing 5-LOX with or without FLAP were selected using geneticin (400 µg/mL) with or without hygromycin (200 µg/mL), respectively, as previously described. Transfection of HEK293 was performed using pcDNA3.1 plasmids and lipofectamine according to the manufacturer’s instructions (Invitrogen, Darmstadt, Germany).
For analysis of 5-LOX product formation in HEK293 cells stably expressing 5-LOX with or without FLAP, cells were harvested by trypsinization, pelleted (1,200 rpm, 5 min, 4 °C) and resuspended in PGC buffer to a final concentration of 1 × 10^6 cells/mL. Aliquots were pre-incubated with test compounds or 0.1% DMSO for 15 min, respectively, and stimulated with 2.5 µM A23187 and 3 µM AA.

[4] = molecular target: T2, mPGES-1; assay: mPGES-1 activity in microsomes of IL-1β-stimulated A549 cells; assay type: biochemical; settings: cell-free, up to 10 µM
Protocol: To perform the analysis of microsomal PGE2 synthase (mPGES)-1 activity, microsomal preparations of A549 cells were obtained as described before. Briefly, A549 cells were cultivated in DMEM medium containing FCS (2%) and IL-1β (2 ng/mL) for 72 h (37 °C, 5% CO2). Cells were harvested and resuspended in homogenization buffer consisting of potassium phosphate (0.1 M, pH 7.4), phenylmethanesulfonyl fluoride (1 mM), soybean trypsin inhibitor (60 µg/mL), leupeptin (1 µg/mL), glutathione (2.5 mM), and sucrose (250 mM). After freezing the cells in liquid nitrogen and sonication (3 × 20 s), a differential centrifugation at 10,000 g (10 min, 4 °C) and 174,000 × g (60 min, 4 °C) was performed and pellets were resuspended in homogenization buffer. […] After stimulation (1 min, 4 °C) with 20 µM PGH2 the reaction was terminated by addition of stop solution containing FeCl3 (40 mM), citric acid (80 mM), and 11β-PGE2 (10 µM as internal standard) and analyzed for PGE2 product formation by RP-HPLC as reported before.

[5] = molecular target: T3, purified ovine COX-1 (Ovis aries, UniProt P05979); assay: COX-1 activity, cell-free (12-HHT formation); assay type: biochemical; settings: 10 µM
T3 construct: purchased Cayman Chemical (Biomol, Hamburg, Germany)
T3 sequence (P05979 25-600): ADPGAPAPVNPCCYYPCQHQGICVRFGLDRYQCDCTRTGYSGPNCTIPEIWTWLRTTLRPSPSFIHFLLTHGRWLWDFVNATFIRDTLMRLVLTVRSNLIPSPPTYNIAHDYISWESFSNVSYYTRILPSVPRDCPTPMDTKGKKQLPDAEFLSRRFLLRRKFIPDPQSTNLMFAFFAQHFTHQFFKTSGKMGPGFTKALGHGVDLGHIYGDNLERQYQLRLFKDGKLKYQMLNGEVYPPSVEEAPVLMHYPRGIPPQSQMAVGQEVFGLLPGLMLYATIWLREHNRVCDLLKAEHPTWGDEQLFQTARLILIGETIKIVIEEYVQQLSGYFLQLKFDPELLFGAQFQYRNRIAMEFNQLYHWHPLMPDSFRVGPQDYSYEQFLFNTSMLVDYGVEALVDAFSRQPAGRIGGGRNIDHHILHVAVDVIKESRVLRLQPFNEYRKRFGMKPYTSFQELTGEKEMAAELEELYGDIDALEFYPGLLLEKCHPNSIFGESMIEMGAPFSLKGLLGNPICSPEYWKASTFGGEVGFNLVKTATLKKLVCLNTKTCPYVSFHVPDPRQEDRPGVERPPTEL
Protocol: COX activity was assayed by using purified ovine COX-1 and recombinant human COX-2, respectively. Enzymes were diluted in Tris buffer (100 mM, pH 8) supplemented with glutathione (5 mM), EDTA (100 µM) and hemoglobin (5 µM) to a final concentration of 50 U/mL (COX-1) or 20 U/mL (COX-2) and pre-incubated with test compounds or vehicle (0.1% DMSO) for 5 min at RT. After 30 sec at 37 °C, reactions were started with 5 µM AA (COX-1) or 2 µM AA (COX-2) and stopped after 5 min at 37 °C by addition of one volume of ice-cold methanol. Solid phase extraction was performed as described above after addition of 200 ng of internal PGB1 standard and COX product formation was determined by analysis of 12-HHT formation as reported before.

[6] = tested on: 15-LOX; assay: 15-LOX activity (15-HETE) in intact neutrophils; assay type: cell-based, human; settings: A23187 and 20 µM AA, concentration-dependently elevated
Protocol: In order to examine 5-LOX product formation in intact human neutrophils and monocytes, freshly isolated cells were resuspended in PBS buffer containing 0.1% glucose and 1 mM CaCl2 (PGC buffer) to a final cell density of 5 × 10^6 or 2 × 10^6, respectively. […] 5-LOX product formation was stopped by addition of one volume of ice-cold methanol, samples were subjected to solid phase extraction after addition of 200 ng PGB1 as internal standard and 5-LOX products were analyzed by RP-HPLC as described above.

Compound | co-localization of 5-LOX with FLAP [1] | inhibition of MAPEG family member mPGES-1 [2] | inhibition of 5-LOX product formation [3] | inhibition of mPGES-1 activity [4] | inhibition of COX-1 activity [5] | 15-HETE formation [6]
CC(C)c1ccc2c(c1)c(SC(C)(C)C)c(CC(C)(C)C(=O)O)n2Cc1ccc(Cl)cc1 [MK886, 3-[1-(4-chlorobenzyl)-3-t-butyl-thio-5-isopropylindol-2-yl]-2,2 - dimethylpropanoic acid] | neither diflapolin nor the FLAP inhibitor MK886 or the 5-LOX inhibitor zileuton prevented co-localization | inhibit |  |  |  | 
Cc1cc(OCc2nc3ccccc3s2)ccc1NC(=O)Nc1ccc(Cl)c(Cl)c1 [diflapolin, N-[4-(benzothiazol-2-ylmethoxy)-2-methylphenyl]-N′-(3,4-dichlorophenyl)urea] |  |  | hardly impaired | failed to inhibit | did not significantly inhibit | up to 200 % of the vehicle control
